From BindingDB's records for doi:10.1038/sj.bjp.0702293 (Monash University, 1999)

Experiments:
[1] = biological target: 5-hydroxytryptamine receptor 7 (Cavia porcellus, UniProt P50407)
[2] = biological target: 5-hydroxytryptamine receptor 7 (Rattus norvegicus, UniProt P32305)
Chain of 5-hydroxytryptamine receptor 7 (Rattus norvegicus, UniProt P32305) (P32305 whole entry): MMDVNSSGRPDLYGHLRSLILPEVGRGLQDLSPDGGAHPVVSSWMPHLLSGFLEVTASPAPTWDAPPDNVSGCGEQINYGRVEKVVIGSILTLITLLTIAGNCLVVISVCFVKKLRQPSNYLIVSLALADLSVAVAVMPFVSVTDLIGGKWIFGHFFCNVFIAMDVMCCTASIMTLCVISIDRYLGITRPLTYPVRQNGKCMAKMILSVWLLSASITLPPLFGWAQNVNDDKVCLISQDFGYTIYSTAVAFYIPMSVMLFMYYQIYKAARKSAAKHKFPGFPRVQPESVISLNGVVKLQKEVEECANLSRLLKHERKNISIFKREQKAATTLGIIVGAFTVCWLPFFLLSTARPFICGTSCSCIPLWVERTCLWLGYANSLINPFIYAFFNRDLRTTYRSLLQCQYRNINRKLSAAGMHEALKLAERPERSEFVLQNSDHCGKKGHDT

Chain of 5-hydroxytryptamine receptor 7 (Cavia porcellus, UniProt P50407) (P50407 whole entry): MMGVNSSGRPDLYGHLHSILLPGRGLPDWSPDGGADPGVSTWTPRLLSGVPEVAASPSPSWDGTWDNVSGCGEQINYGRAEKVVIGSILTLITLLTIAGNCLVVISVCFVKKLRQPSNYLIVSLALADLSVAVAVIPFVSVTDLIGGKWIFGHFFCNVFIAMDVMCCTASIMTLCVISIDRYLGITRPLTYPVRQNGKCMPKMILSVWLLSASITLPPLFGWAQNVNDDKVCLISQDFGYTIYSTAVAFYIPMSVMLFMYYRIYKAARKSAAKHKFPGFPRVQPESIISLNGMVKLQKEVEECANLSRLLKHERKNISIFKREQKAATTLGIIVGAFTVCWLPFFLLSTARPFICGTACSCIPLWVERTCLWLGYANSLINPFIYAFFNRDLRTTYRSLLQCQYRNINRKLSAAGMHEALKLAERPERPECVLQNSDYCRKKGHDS

Compound	Ki [1] [nM]	Ki [2] [nM]
Cc1nc2sccn2c(=O)c1CCN1CCC(=C(c2ccc(F)cc2)c2ccc(F)cc2)CC1	5.01	25.1
Cc1nc2n(c(=O)c1CCN1CCC(c3noc4cc(F)ccc34)CC1)CCCC2 [3-{2-[4-(6-Fluoro-benzo[d]isoxazol-3-yl)-piperidin-1-yl]-ethyl}-2-methyl-6,7,8,9-tetrahydro-pyrido[1,2-a]pyrimidin-4-one(risperidone)]	0.4	
CCN(CC)C(=O)[C@@H]1C=C2c3cccc4[nH]cc(c34)C[C@H]2N(C)C1 [(4R,7R)-N,N-diethyl-6-methyl-6,11-diazatetracyclo[7.6.1.0^{2,7}.0^{12,16}]hexadeca-1(16),2,9,12,14-pentaene-4-carboxamide]	0.4	
CC(C)NCC(O)COc1cccc2[nH]ccc12 (centres undefined) [LB-46]	501	> 10000
CN1C[C@@H](NS(=O)(=O)N(C)C)C[C@@H]2c3cccc4c3c(cn4C)C[C@H]21 [MESULERGINE]	12.6	10
CN1C[C@H](CNC(=O)OCc2ccccc2)C[C@@H]2c3cccc4c3c(cn4C)C[C@H]21 [METERGOLINE]	1.58	10
CNS(=O)(=O)Cc1ccc2[nH]cc(CCN(C)C)c2c1 [Sumax]	100	25.1
NCCc1c[nH]c2ccc(O)cc12 [[3H]-5-HT]	0.1	
COc1ccc2[nH]cc(CCN)c2c1 [tryptamine, 5-Methoxy]	0.25	
